SMILES strings stand for the structures. Marks after values point to notes of the source that are not given here.

Experiment [1] concerns Rabbit Psoas myofibrils (skeletal myosin ATPase). Description: Myofibril ATPase assay, rabbit psoas (skeletal) myofibrils. It counts as biochemical. As to conditions: rabbit psoas myofibrils. Put shortly: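 Myofibrils homogenized in Triton X-100 buffer were assayed in pH 7.0 PIPES with defined Ca2+/EGTA. Myosin-driven ADP formation was coupled to NADH oxidation, with depletion monitored at 340 nm. Each value is the concentration that lowers activity to 75% of vehicle or, for activators, raises it to 125%.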

Experiment [2] relates to Porcine atria myofibrils (atrial myosin ATPase). In words: Myofibril ATPase assay, porcine atria myofibrils. It counts as biochemical. To be noted: porcine atria myofibrils. Put shortly: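 Values are Y75 (concentration cutting ATPase activity to 75% of vehicle) or Y125 (raising it to 125%), taken from 4-parameter logistic fits. Rates come from NADH disappearance at 340 nm in a PK/LDH-coupled assay with porcine atria myofibrils.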

Experiment [3] addresses T1, Porcine ventricle myofibrils (ventricular myosin ATPase) (Sus scrofa, UniProt P79293).
T1 construct: Myofibrils from porcine cardiac muscle was isolated from the left ventricle of Yucatan minipigs; tissue Exemplar Genetics; host or cells: left ventricle of Yucatan minipigs, myofibrils prepared in house
In words: Myofibril ATPase assay, porcine ventricle myofibrils. It counts as biochemical, porcine (Yucatan minipigs). To be noted: porcine ventricle myofibrils. In outline: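 ATPase activity of porcine left-ventricular myofibrils is tracked as the slope of NADH loss at 340 nm through a PK/LDH couple. Values are the concentrations that bring activity to 75% (inhibitors) or 125% (activators) of vehicle.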

[4] abbreviates: ‡ Y125 value, not a Y75 value (125% activity relative to no compound).
Setting [5] is: Y75 value (75% activity relative to no compound).

T1 sequence (P79293 whole entry): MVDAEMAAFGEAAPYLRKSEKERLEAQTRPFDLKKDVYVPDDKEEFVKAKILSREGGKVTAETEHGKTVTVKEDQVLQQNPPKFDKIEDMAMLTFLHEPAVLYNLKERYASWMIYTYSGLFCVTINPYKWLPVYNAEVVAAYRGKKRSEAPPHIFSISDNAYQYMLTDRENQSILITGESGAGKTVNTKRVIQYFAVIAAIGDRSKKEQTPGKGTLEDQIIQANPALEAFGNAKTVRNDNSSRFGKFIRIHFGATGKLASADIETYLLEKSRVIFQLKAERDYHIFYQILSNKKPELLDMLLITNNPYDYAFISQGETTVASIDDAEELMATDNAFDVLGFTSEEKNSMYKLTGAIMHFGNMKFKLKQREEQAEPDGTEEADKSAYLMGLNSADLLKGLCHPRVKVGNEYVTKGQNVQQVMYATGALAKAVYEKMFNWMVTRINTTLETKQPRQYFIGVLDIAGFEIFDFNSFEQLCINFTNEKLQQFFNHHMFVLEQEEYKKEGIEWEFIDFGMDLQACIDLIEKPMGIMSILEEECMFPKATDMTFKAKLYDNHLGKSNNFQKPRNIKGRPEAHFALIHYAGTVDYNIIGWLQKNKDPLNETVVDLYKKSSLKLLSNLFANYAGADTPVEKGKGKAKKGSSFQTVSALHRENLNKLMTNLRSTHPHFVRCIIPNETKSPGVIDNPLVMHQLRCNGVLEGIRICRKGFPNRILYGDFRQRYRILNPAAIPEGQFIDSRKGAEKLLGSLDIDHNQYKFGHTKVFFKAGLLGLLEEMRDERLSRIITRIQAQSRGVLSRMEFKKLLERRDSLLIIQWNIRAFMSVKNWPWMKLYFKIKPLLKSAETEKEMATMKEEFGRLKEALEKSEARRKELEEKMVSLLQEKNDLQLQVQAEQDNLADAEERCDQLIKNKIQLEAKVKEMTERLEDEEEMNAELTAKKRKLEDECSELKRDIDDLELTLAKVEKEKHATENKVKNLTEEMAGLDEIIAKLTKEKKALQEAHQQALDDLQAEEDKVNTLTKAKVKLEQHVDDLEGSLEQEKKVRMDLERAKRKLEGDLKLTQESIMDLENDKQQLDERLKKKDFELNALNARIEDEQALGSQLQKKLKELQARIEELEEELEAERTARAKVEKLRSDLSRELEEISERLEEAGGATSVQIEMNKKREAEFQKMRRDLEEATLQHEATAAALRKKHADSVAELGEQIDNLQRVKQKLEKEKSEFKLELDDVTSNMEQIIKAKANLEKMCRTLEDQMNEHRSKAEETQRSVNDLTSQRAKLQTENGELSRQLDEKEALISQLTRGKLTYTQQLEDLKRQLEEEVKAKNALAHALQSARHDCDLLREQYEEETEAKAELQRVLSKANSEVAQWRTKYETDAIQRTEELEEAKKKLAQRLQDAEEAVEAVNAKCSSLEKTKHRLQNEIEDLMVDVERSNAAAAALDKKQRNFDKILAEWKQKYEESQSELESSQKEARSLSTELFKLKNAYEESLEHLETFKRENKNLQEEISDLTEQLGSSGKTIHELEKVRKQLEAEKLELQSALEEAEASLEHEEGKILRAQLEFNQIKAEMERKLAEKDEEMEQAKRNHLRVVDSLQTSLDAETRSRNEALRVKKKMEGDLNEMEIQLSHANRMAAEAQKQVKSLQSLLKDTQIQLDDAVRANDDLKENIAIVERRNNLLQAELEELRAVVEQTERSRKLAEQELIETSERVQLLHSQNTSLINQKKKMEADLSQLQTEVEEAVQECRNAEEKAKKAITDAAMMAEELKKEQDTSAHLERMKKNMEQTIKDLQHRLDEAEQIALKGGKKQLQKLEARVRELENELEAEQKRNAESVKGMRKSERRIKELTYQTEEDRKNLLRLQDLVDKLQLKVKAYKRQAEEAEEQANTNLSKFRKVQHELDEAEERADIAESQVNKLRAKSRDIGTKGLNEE

For `Cc1c(C2(C(=O)N[C@H](C)c3cccc(C#N)n3)CC2)c(=O)[nH]c2ccc(F)c(F)c12` (single isomer, unassigned) [compound 2547], in experiment [1] (Y75 value (no ‡ mark)), the “Skeletal EC25” value was found to be 0.91 µM. Further, the “Atrial EC25” value in experiment [2] (setting [4]) is on record as 100.00‡ μM. Further, the “Ventricular EC25” value in experiment [3] (setting [4]) is listed as 58.38‡ μM.
In the case of `C[C@H](NC(=O)Cc1cc2c(C#N)c(O)ccc2[nH]c1=O)c1ccc(F)cc1F` [compound 82], in experiment [1] (Y75 value (no ‡ mark)), the “Skeletal EC25” value came to 100.00 µM. For the same compound, in experiment [2] (Y75 value (no ‡ mark)), the “Atrial EC25” value is 100.00 µM. Also, the “Ventricular EC25” value in experiment [3] (Y75 value (no ‡ mark)) is 100.00 µM.
As for `Cc1c(C2(C(=O)N[C@H](C)c3ncc(C#N)cn3)CC2)c(=O)[nH]c2ccc(F)cc12` (single isomer, unassigned) [compound 2590], the “Skeletal EC25” value in experiment [1] (Y75 value (no ‡ mark)) was 1.30 µM. Also, the “Atrial EC25” value in experiment [2] (Y75 value (no ‡ mark)) was 0.43 µM. Besides, in experiment [3] (Y75 value (no ‡ mark)), the “Ventricular EC25” value turned out to be 3.41 µM.
Turning to `C[C@H](NC(=O)[C@H](C)c1cc2c(F)cccc2[nH]c1=O)c1ccc(F)cc1F` (single isomer, unassigned) [compound 103], in experiment [1] (Y75 value (no ‡ mark)), the “Skeletal EC25” value stood at 1.64 µM. The “Atrial EC25” value in experiment [2] (Y75 value (no ‡ mark)) is 1.13 µM. In addition, in experiment [3] (Y75 value (no ‡ mark)), the “Ventricular EC25” value is 100.00 µM.
For the compound `C[C@@H](NC(=O)C(F)(F)c1cc2c(F)c(F)ccc2[nH]c1=O)c1cccc(C#N)n1` (single isomer, unassigned) [compound 2571], the “Skeletal EC25” value in experiment [1] (Y75 value (no ‡ mark)) amounted to 100.00 µM. Also, in experiment [2] (Y75 value (no ‡ mark)), the “Atrial EC25” value came to 40.54 µM. The “Ventricular EC25” value in experiment [3] (Y75 value (no ‡ mark)) was found to be 8.06 µM.
In the case of `Cc1c(CC(=O)N[C@H](C)c2ccc(C#N)cc2F)c(=O)[nH]c2ccc(F)c(C3CC3)c12` [compound 69], the “Skeletal EC25” value in experiment [1] (Y75 value (no ‡ mark)) was 0.01 µM. The “Atrial EC25” value in experiment [2] (Y75 value (no ‡ mark)) was 0.03 µM. The “Ventricular EC25” value in experiment [3] (Y75 value (no ‡ mark)) stood at 0.11 µM.
Turning to `Cc1nccc2[nH]c(=O)c(CC(=O)N[C@@H](CO)c3ncc(F)cc3F)c(C)c12` (single isomer, unassigned) [compound 308], in experiment [1] (Y75 value), the “Skeletal EC25” value was found to be 1.82 µM. Moreover, the “Atrial EC25” value in experiment [2] (setting [5]) was found to be 1.07 µM. In addition, the “Ventricular EC25” value in experiment [3] (Y75 value) turned out to be 12.24 µM.
For `Cc1nccc2[nH]c(=O)c(CC(=O)N[C@H](CO)c3ccncc3)c(C)c12` [compound 292], the “Skeletal EC25” value in experiment [1] (Y75 value) is 100.00 µM. Besides, the “Atrial EC25” value in experiment [2] (setting [5]) came out at 100.00 µM. Further, the “Ventricular EC25” value in experiment [3] (Y75 value) is 100.00 µM.
With `Cc1nccc2[nH]c(=O)c([C@H](C)C(=O)N[C@H](C)c3ccc(C#N)cc3F)c(C)c12` (single isomer, unassigned) [compound 184], the “Skeletal EC25” value in experiment [1] (Y75 value) turned out to be 100.00 µM. The “Atrial EC25” value in experiment [2] (setting [5]) was determined as 100.00 µM. The “Ventricular EC25” value in experiment [3] (Y75 value) came to 100.00 µM.
`CNc1c(CC(=O)N[C@@H](C)c2ccc(F)cc2F)c(=O)[nH]c2ccccc12` [compound 128]: the “Skeletal EC25” value in experiment [1] (Y75 value (no ‡ mark)) is 0.17 µM. For the same compound, the “Atrial EC25” value in experiment [2] (Y75 value (no ‡ mark)) turned out to be 0.90 µM. Also, the “Ventricular EC25” value in experiment [3] (Y75 value (no ‡ mark)) is 9.83 µM.
As to `Cc1nccc2[nH]c(=O)c(CC(=O)N[C@H](C)c3cccnc3O)c(C)c12` (single isomer, unassigned) [compound 302], in experiment [1] (Y75 value), the “Skeletal EC25” value turned out to be 100.00 µM. Besides, the “Atrial EC25” value in experiment [2] (setting [5]) amounted to 100.00 µM. Also, in experiment [3] (Y75 value), the “Ventricular EC25” value was found to be 100.00 µM.
Consider `Cc1nc(C#N)cnc1[C@@H](C)NC(=O)C(F)(F)c1c(C)c2cc(F)ccc2[nH]c1=O` (single isomer, unassigned) [compound 2567], for which the “Skeletal EC25” value in experiment [1] (Y75 value (no ‡ mark)) stood at 0.33 µM. Besides, in experiment [2] (Y75 value (no ‡ mark)), the “Atrial EC25” value was 0.34 µM. In addition, the “Ventricular EC25” value in experiment [3] (Y75 value (no ‡ mark)) stood at 1.07 µM.
On the same counts, the results for `Cc1cc(C#N)ncc1[C@H](C)NC(=O)Cc1c(C)c2c(C)c(F)ccc2[nH]c1=O` [compound 1045] are 0.44 µM, 1.5 µM and 1.7 µM.
Consider `COc1ccc2[nH]c(=O)c(CC(=O)N[C@@H](C)c3ncc(F)cc3F)cc2c1C` (single isomer, unassigned) [compound 80], for which the “Skeletal EC25” value in experiment [1] (Y75 value (no ‡ mark)) stood at 18.54 µM. The “Atrial EC25” value in experiment [2] (Y75 value (no ‡ mark)) amounted to 100.00 µM. Also, the “Ventricular EC25” value in experiment [3] (Y75 value (no ‡ mark)) came to 100.00 µM.
In the case of `Cc1c(C(C)C(=O)N[C@@H](C)c2ccc(F)cc2F)c(=O)[nH]c2ccncc12` (stereo partly drawn) [compound 440], the “Skeletal EC25” value in experiment [1] (Y75 value) was 2.78 µM. In experiment [2] (setting [5]), the “Atrial EC25” value turned out to be 34.65 µM. Besides, the “Ventricular EC25” value in experiment [3] (Y75 value) worked out at 100.00 µM.
As to `C[C@H](NC(=O)[C@@H](C)c1c(C(F)(F)F)c2cc(F)ccc2[nH]c1=O)c1ccc(F)cc1F` (single isomer, unassigned) [compound 57], the “Skeletal EC25” value in experiment [1] (Y75 value (no ‡ mark)) is 0.07 µM. Further, in experiment [2] (Y75 value (no ‡ mark)), the “Atrial EC25” value is 0.15 µM. The “Ventricular EC25” value in experiment [3] (Y75 value (no ‡ mark)) amounted to 100.00 µM.
For `Cc1c(CC(=O)N[C@H]2COc3cc(F)cc(F)c32)c(=O)[nH]c2ccnc(C#N)c12` (single isomer, unassigned) [compound 274], the “Skeletal EC25” value in experiment [1] (Y75 value) was determined as 0.02 µM. For the same compound, the “Atrial EC25” value in experiment [2] (setting [5]) was determined as 0.04 µM. Also, in experiment [3] (Y75 value), the “Ventricular EC25” value stood at 0.13 µM.
With `CC(NC(=O)C1(c2cc3c(F)c(F)ccc3[nH]c2=O)CC1)c1cccc(C#N)n1` (single isomer, unassigned) [Compound 2570], the “Skeletal EC25” value in experiment [1] (setting [4]) is listed as 26.03‡ μM. The “Atrial EC25” value in experiment [2] (setting [4]) is on record as 100.00‡ μM. Besides, the “Ventricular EC25” value in experiment [3] (setting [4]) was 63.85‡ μM.
Consider `C[C@H](NC(=O)Cc1c(C(F)(F)F)c2c(C3CC3)nccc2[nH]c1=O)c1ccc(C#N)nn1` (single isomer, unassigned) [compound 3004], for which the “Skeletal EC25” value in experiment [1] (Y75 value) was 5.99 µM. Also, the “Atrial EC25” value in experiment [2] (setting [5]) turned out to be 10.04 µM. The “Ventricular EC25” value in experiment [3] (Y75 value) was determined as 100.00 µM.
On the same counts, the results for `Cc1nccc2[nH]c(=O)c(C(F)(F)C(=O)N[C@H](C)c3ccc(C#N)cc3F)c(C)c12` (single isomer, unassigned) [compound 3511] are 0.26 µM, 0.56 µM and 2.65 µM.
Consider `Cc1c(CC(=O)N[C@@H](C)c2ncc(C#N)cn2)c(=O)[nH]c2ccc(F)c(C#N)c12` (single isomer, unassigned) [compound 2016], for which, in experiment [1] (Y75 value (no ‡ mark)), the “Skeletal EC25” value stood at 0.05 µM. Further, in experiment [2] (Y75 value (no ‡ mark)), the “Atrial EC25” value was 0.12 µM. For the same compound, in experiment [3] (Y75 value (no ‡ mark)), the “Ventricular EC25” value was 0.29 µM.
In the case of `Cc1nccc2[nH]c(=O)c(C3(C(=O)N[C@@H](C)c4ccc(C#N)cc4F)CC3)c(C)c12` (single isomer, unassigned) [compound 3512], the “Skeletal EC25” value in experiment [1] (Y75 value) is 0.71 µM. Moreover, the “Atrial EC25” value in experiment [2] (setting [5]) is 1.65 µM. Further, the “Ventricular EC25 (Y125 value, marked ‡)” value in experiment [3] (Y125 value, not a Y75 value) is recorded as 100.00‡ μM.
With `Cc1nccc2[nH]c(=O)c(CC(=O)N[C@H](c3ccc(F)cc3F)C(C)(C)O)c(C)c12` (single isomer, unassigned) [compound 272], in experiment [1] (Y75 value), the “Skeletal EC25” value is 100.00 µM. Besides, the “Atrial EC25” value in experiment [2] (setting [5]) was 100.00 µM. Further, in experiment [3] (Y75 value), the “Ventricular EC25” value came to 100.00 µM.
As to `Cc1nccc2[nH]c(=O)c(CC(=O)NC[C@@H](CO)c3ccccc3)c(C)c12` [compound 494], the “Skeletal EC25” value in experiment [1] (Y75 value) came to 100.00 µM. The “Atrial EC25” value in experiment [2] (setting [5]) was found to be 100.00 µM. In addition, the “Ventricular EC25” value in experiment [3] (Y75 value) worked out at 100.00 µM.
Consider `C[C@H](NC(=O)[C@H](C)c1cc2c(F)nccc2[nH]c1=O)c1ccc(F)cc1F` (single isomer, unassigned) [compound 368], for which the “Skeletal EC25” value in experiment [1] (Y75 value) came out at 0.43 µM. In addition, the “Atrial EC25” value in experiment [2] (setting [5]) was 1.66 µM. Also, in experiment [3] (Y75 value), the “Ventricular EC25” value stood at 43.64 µM.
Take `Cc1c(CC(=O)N[C@H](CO)c2ccc(C#N)cc2F)c(=O)[nH]c2ccc(F)c(C3CC3)c12` [compound 71]: the “Skeletal EC25” value in experiment [1] (Y75 value (no ‡ mark)) came to 0.23 µM. In experiment [2] (Y75 value (no ‡ mark)), the “Atrial EC25” value is 1.10 µM. In experiment [3] (Y75 value (no ‡ mark)), the “Ventricular EC25” value came out at 8.50 µM.

The values above are taken from patent US12448369B2 (Edgewise Therapeutics, Inc., priority 2023, dated 2025).
